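A five-concentration, 48-hour dose response in 96-well plates underlies each endpoint, interpolated linearly between surrounding concentrations. Definition used: TGI = concentration required for complete inhibition of growth.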
How the values were obtained:
Experiment in all cases: NCI-60 cell line screen, 48 h
786-0 renal = test system: 786-0 renal
SK-MEL-5 melanoma = test system: SK-MEL-5 melanoma
RXF 393 renal = test system: RXF 393 renal
A549 NSCLC = test system: A549 NSCLC
MALME-3M melanoma = test system: MALME-3M melanoma
OVCAR-8 ovarian = test system: OVCAR-8 ovarian
HCC-2998 colon = test system: HCC-2998 colon
UACC-62 melanoma = test system: UACC-62 melanoma
KM20L2 colon = test system: KM20L2 colon
OVCAR-3 ovarian = test system: OVCAR-3 ovarian
SN12C renal = test system: SN12C renal
SK-OV-3 ovarian = test system: SK-OV-3 ovarian
HT29 colon = test system: HT29 colon
UO-31 renal = test system: UO-31 renal
LOX IMVI melanoma = test system: LOX IMVI melanoma
NCI-H460 lung = test system: NCI-H460 lung
OVCAR-4 ovarian = test system: OVCAR-4 ovarian
XF 498 CNS = test system: XF 498 CNS
NCI-H23 lung = test system: NCI-H23 lung
HOP-62 NSCLC = test system: HOP-62 NSCLC
CCRF-CEM leukemia = test system: CCRF-CEM leukemia
NCI-H522 lung = test system: NCI-H522 lung
SW-620 colon = test system: SW-620 colon
M19-MEL melanoma = test system: M19-MEL melanoma
SF-268 CNS = test system: SF-268 CNS
SNB-19 CNS = test system: SNB-19 CNS
DLD-1 colon = test system: DLD-1 colon
SNB-78 CNS = test system: SNB-78 CNS
U251 CNS = test system: U251 CNS
HCT-15 colon = test system: HCT-15 colon
SF-295 CNS = test system: SF-295 CNS
SF-539 CNS = test system: SF-539 CNS
DMS 114 small cell lung = test system: DMS 114 small cell lung
SNB-75 CNS = test system: SNB-75 CNS
UACC-257 melanoma = test system: UACC-257 melanoma
RPMI-8226 leukemia = test system: RPMI-8226 leukemia
HCT-116 colon = test system: HCT-116 colon
ACHN renal = test system: ACHN renal
NCI-H226 lung = test system: NCI-H226 lung
OVCAR-5 ovarian = test system: OVCAR-5 ovarian
DMS 273 small cell lung = test system: DMS 273 small cell lung
IGROV1 ovarian = test system: IGROV1 ovarian
COLO 205 colon = test system: COLO 205 colon
TK-10 renal = test system: TK-10 renal
KM12 colon = test system: KM12 colon
LXFL 529 NSCLC = test system: LXFL 529 NSCLC
SK-MEL-28 melanoma = test system: SK-MEL-28 melanoma
M14 melanoma = test system: M14 melanoma
HOP-92 NSCLC = test system: HOP-92 NSCLC
CAKI-1 renal = test system: CAKI-1 renal
EKVX NSCLC = test system: EKVX NSCLC
MOLT-4 leukemia = test system: MOLT-4 leukemia
K-562 leukemia = test system: K-562 leukemia
A498 renal = test system: A498 renal
SR leukemia = test system: SR leukemia
HL-60(TB) leukemia = test system: HL-60(TB) leukemia
HOP-18 NSCLC = test system: HOP-18 NSCLC
SK-MEL-2 melanoma = test system: SK-MEL-2 melanoma

COC(=O)OCC1OC(N2C(=O)NC(=O)C(Br)C2N=[N+]=[N-])CC1OC(=O)OC (centres undefined)
TGI (786-0 renal): > 100 µM | TGI (SK-MEL-5 melanoma): > 100 µM | TGI (RXF 393 renal): > 100 µM | TGI (A549 NSCLC): > 100 µM | TGI (MALME-3M melanoma): > 100 µM | TGI (OVCAR-8 ovarian): > 100 µM | TGI (HCC-2998 colon): > 100 µM | TGI (UACC-62 melanoma): > 100 µM | TGI (KM20L2 colon): > 100 µM | TGI (OVCAR-3 ovarian): > 100 µM | TGI (SN12C renal): > 100 µM | TGI (SK-OV-3 ovarian): > 100 µM | TGI (HT29 colon): > 100 µM | TGI (UO-31 renal): > 100 µM | TGI (LOX IMVI melanoma): > 100 µM | TGI (NCI-H460 lung): > 100 µM | TGI (OVCAR-4 ovarian): > 100 µM | TGI (XF 498 CNS): > 100 µM | TGI (NCI-H23 lung): > 100 µM | TGI (HOP-62 NSCLC): > 100 µM | TGI (CCRF-CEM leukemia): > 100 µM | TGI (NCI-H522 lung): > 100 µM | TGI (SW-620 colon): > 100 µM | TGI (M19-MEL melanoma): > 100 µM | TGI (SF-268 CNS): > 100 µM | TGI (SNB-19 CNS): > 100 µM | TGI (DLD-1 colon): > 100 µM | TGI (SNB-78 CNS): > 100 µM | TGI (U251 CNS): > 100 µM | TGI (HCT-15 colon): > 100 µM | TGI (SF-295 CNS): > 100 µM | TGI (SF-539 CNS): > 100 µM | TGI (DMS 114 small cell lung): > 100 µM | TGI (SNB-75 CNS): > 100 µM | TGI (UACC-257 melanoma): > 100 µM | TGI (RPMI-8226 leukemia): > 100 µM | TGI (HCT-116 colon): > 100 µM | TGI (ACHN renal): > 100 µM | TGI (NCI-H226 lung): > 100 µM | TGI (OVCAR-5 ovarian): > 100 µM | TGI (DMS 273 small cell lung): > 100000 nM | TGI (IGROV1 ovarian): > 100 µM | TGI (COLO 205 colon): > 100 µM | TGI (TK-10 renal): > 100 µM | TGI (KM12 colon): > 100 µM | TGI (LXFL 529 NSCLC): > 100 µM | TGI (SK-MEL-28 melanoma): > 100 µM | TGI (M14 melanoma): > 100 µM | TGI (HOP-92 NSCLC): > 100 µM | TGI (CAKI-1 renal): > 100 µM

O=C1CC2C(=O)N(Cc3ccccc3)C1C=C2S(=O)(=O)c1ccccc1 (centres undefined)
TGI (786-0 renal): > 100 µM | TGI (SK-MEL-5 melanoma): > 100 µM | TGI (RXF 393 renal): > 100 µM | TGI (A549 NSCLC): > 100 µM | TGI (MALME-3M melanoma): > 100 µM | TGI (EKVX NSCLC): > 100 µM | TGI (OVCAR-8 ovarian): > 100 µM | TGI (HCC-2998 colon): > 100 µM | TGI (UACC-62 melanoma): > 100 µM | TGI (KM20L2 colon): > 100 µM | TGI (OVCAR-3 ovarian): > 100 µM | TGI (SN12C renal): > 100 µM | TGI (SK-OV-3 ovarian): > 100 µM | TGI (HT29 colon): > 100 µM | TGI (UO-31 renal): > 100 µM | TGI (LOX IMVI melanoma): > 100 µM | TGI (NCI-H460 lung): > 100 µM | TGI (MOLT-4 leukemia): > 100 µM | TGI (OVCAR-4 ovarian): > 100 µM | TGI (XF 498 CNS): > 100 µM | TGI (K-562 leukemia): > 100 µM | TGI (NCI-H23 lung): > 100 µM | TGI (HOP-62 NSCLC): > 100 µM | TGI (CCRF-CEM leukemia): > 100 µM | TGI (NCI-H522 lung): > 100 µM | TGI (SW-620 colon): > 100 µM | TGI (M19-MEL melanoma): > 100 µM | TGI (A498 renal): > 100 µM | TGI (SF-268 CNS): > 100 µM | TGI (SNB-19 CNS): > 100 µM | TGI (DLD-1 colon): > 100 µM | TGI (SNB-78 CNS): > 100 µM | TGI (U251 CNS): > 100 µM | TGI (SR leukemia): > 100 µM | TGI (SF-295 CNS): > 100 µM | TGI (SF-539 CNS): > 100 µM | TGI (DMS 114 small cell lung): > 100 µM | TGI (SNB-75 CNS): > 100 µM | TGI (UACC-257 melanoma): > 100 µM | TGI (HCT-116 colon): > 100 µM | TGI (ACHN renal): > 100 µM | TGI (HL-60(TB) leukemia): > 100 µM | TGI (NCI-H226 lung): > 100 µM | TGI (IGROV1 ovarian): > 100 µM | TGI (COLO 205 colon): > 100 µM | TGI (HOP-18 NSCLC): > 100 µM | TGI (TK-10 renal): > 100 µM | TGI (KM12 colon): > 100 µM | TGI (LXFL 529 NSCLC): > 100 µM | TGI (SK-MEL-28 melanoma): > 100 µM | TGI (M14 melanoma): > 100 µM | TGI (HOP-92 NSCLC): > 100 µM

Cc1cc(C)[n+](CCOc2ccc(/C(=C(/Cl)c3ccccc3)c3ccccc3)cc2)c(C)c1
TGI (786-0 renal): 8.35 µM | TGI (SK-MEL-5 melanoma): 1.64 µM | TGI (RXF 393 renal): 7.77 µM | TGI (A549 NSCLC): 17.4 µM | TGI (MALME-3M melanoma): 3.64 µM | TGI (EKVX NSCLC): 13.2 µM | TGI (OVCAR-8 ovarian): 8.41 µM | TGI (HCC-2998 colon): 2.46 µM | TGI (UACC-62 melanoma): 4.92 µM | TGI (KM20L2 colon): 12.7 µM | TGI (OVCAR-3 ovarian): 4.07 µM | TGI (SN12C renal): 6.03 µM | TGI (SK-OV-3 ovarian): 6.54 µM | TGI (HT29 colon): 3.48 µM | TGI (UO-31 renal): 35.7 µM | TGI (LOX IMVI melanoma): 2.14 µM | TGI (NCI-H460 lung): 8.18 µM | TGI (MOLT-4 leukemia): 11.3 µM | TGI (OVCAR-4 ovarian): 13.5 µM | TGI (XF 498 CNS): 1.29 µM | TGI (K-562 leukemia): 8.11 µM | TGI (NCI-H23 lung): 6.94 µM | TGI (HOP-62 NSCLC): 9.06 µM | TGI (CCRF-CEM leukemia): 3.28 µM | TGI (NCI-H522 lung): 2.62 µM | TGI (SW-620 colon): 11.1 µM | TGI (M19-MEL melanoma): 1.84 µM | TGI (A498 renal): 30.2 µM | TGI (SF-268 CNS): 7.55 µM | TGI (SNB-19 CNS): 5.21 µM | TGI (DLD-1 colon): 15.8 µM | TGI (SNB-78 CNS): 19.5 µM | TGI (U251 CNS): 4.14 µM | TGI (SR leukemia): 4.32 µM | TGI (HCT-15 colon): 27.5 µM | TGI (SF-295 CNS): 11.2 µM | TGI (SF-539 CNS): 9.82 µM | TGI (DMS 114 small cell lung): 5.43 µM | TGI (SNB-75 CNS): 4.3 µM | TGI (UACC-257 melanoma): 3.28 µM | TGI (RPMI-8226 leukemia): 3.59 µM | TGI (HCT-116 colon): 7.98 µM | TGI (ACHN renal): 31.4 µM | TGI (HL-60(TB) leukemia): 3.31 µM | TGI (NCI-H226 lung): 6.37 µM | TGI (OVCAR-5 ovarian): 12.4 µM | TGI (DMS 273 small cell lung): 1480 nM | TGI (IGROV1 ovarian): 2.33 µM | TGI (COLO 205 colon): 0.961 µM | TGI (SK-MEL-2 melanoma): 2180 nM | TGI (TK-10 renal): 13.1 µM | TGI (KM12 colon): 2.01 µM | TGI (LXFL 529 NSCLC): 1.82 µM | TGI (SK-MEL-28 melanoma): 3.58 µM | TGI (M14 melanoma): 6.88 µM | TGI (HOP-92 NSCLC): 2.7 µM | TGI (CAKI-1 renal): 20.3 µM

From PubChem BioAssay (NCI)
